Some test systems named below: RXF 393 renal; SW-620 colon; UO-31 renal; HOP-62 NSCLC; A498 renal; HS 578T breast; NCI-H23 lung; HT29 colon; NCI-H460 lung; HCT-15 colon.
Experiment in all cases: inhibition of tumour cell growth, NCI panel, 48 h

Structures are written as SMILES.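 Compound exposure: 48 hours, 5 concentrations, 96-well plates. TGI is the concentration that stops growth completely.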 Where a SMILES comes first, the peptide text is derived from it. [ ]: non-standard residue; d: D form. The star is where a group is joined. Bn2Val = CC(C)[C@@H](C(=O)*)N(Cc1ccccc1)Cc1ccccc1; NMeV = CN[C@H](C(=O)O)C(C)C; X29 = COc1ccc(CN*)c(OC)c1; dNMeA = CN[C@H](C)C(=O)O

For `OCC(CCc1ccccc1I)C1=CCC2(CC1)OCCO2` (configuration not stated), the TGI with RXF 393 renal came out at 34.9 µM; in the assay with SW-620 colon, 61.5 µM; in the assay on UO-31 renal, 41.1 µM; in the assay on HOP-62 NSCLC, 37.4 µM; in the assay on A498 renal, 55.9 µM; with HS 578T breast, 45.4 µM. In addition, the TGI in the assay on NCI-H23 lung amounted to 48.9 µM; in the assay on HT29 colon, 41.6 µM; in the assay on NCI-H460 lung, 57.7 µM; in the assay with HCT-15 colon it was 54.7 µM.

With `COC(=O)CCc1c(Cc2ccc[nH]2)[nH]c(C(=O)OCc2ccccc2)c1C`, the TGI came to 49 µM in the assay on RXF 393 renal; 45.7 µM in the assay on SW-620 colon; 39.9 µM in the assay on HOP-62 NSCLC; 62.8 µM in the assay with A498 renal; 88.5 µM with HS 578T breast; 43.9 µM in the assay on NCI-H23 lung. The TGI in the assay on HT29 colon was 38.9 µM; with NCI-H460 lung, more than 100 µM; in the assay with HCT-15 colon it was 36.3 µM.

Turning to `NC(=O)c1cc(N(CCO)CCO)c([N+](=O)[O-])cc1[N+](=O)[O-]`, the TGI in the assay on RXF 393 renal, in the assay with SW-620 colon, in the assay with UO-31 renal, in the assay with HOP-62 NSCLC, in the assay with A498 renal and with HS 578T breast was more than 100 µM throughout. The TGI in the assay with NCI-H23 lung, in the assay on HT29 colon, with NCI-H460 lung and with HCT-15 colon was more than 100 µM throughout.

For `COc1ccc(C2OCCN2C)cc1` (configuration not stated), the TGI in the assay with RXF 393 renal, in the assay with SW-620 colon, with UO-31 renal, with HOP-62 NSCLC, in the assay on A498 renal and with HS 578T breast was more than 100 µM throughout. The TGI in the assay on NCI-H23 lung, in the assay with HT29 colon, with NCI-H460 lung and with HCT-15 colon was more than 100 µM in each case.

As to `Cc1nc2n(c1/C=C1/C(=O)Nc3ccccc31)CCS2`, the TGI is 71.3 µM with RXF 393 renal; more than 100 µM in the assay with SW-620 colon; more than 100 µM with UO-31 renal; more than 100 µM with HOP-62 NSCLC; more than 100 µM in the assay with A498 renal; more than 100 µM in the assay with HS 578T breast. Also, the TGI with NCI-H23 lung, in the assay with HT29 colon, with NCI-H460 lung and in the assay on HCT-15 colon was more than 100 µM in each case.

Consider `O=[N+]([O-])c1ccc2oc(=Nc3ccccc3)c(Nc3ccccc3)nc2c1`, for which the TGI with RXF 393 renal, in the assay with SW-620 colon, in the assay on UO-31 renal, with HOP-62 NSCLC, in the assay with A498 renal and in the assay with HS 578T breast was more than 100 µM each time. Moreover, the TGI in the assay on NCI-H23 lung, with HT29 colon, in the assay on NCI-H460 lung and with HCT-15 colon was more than 100 µM in each case.

Consider `COc1ccc(CNC(=O)[C@@H]2CCCN2C(=O)[C@@H](C)N(C)C(=O)[C@H](C(C)C)N(C)C(=O)[C@@H](NC(=O)[C@H](C(C)C)N(Cc2ccccc2)Cc2ccccc2)C(C)C)c(OC)c1` (Bn2Val-V[NMeV][dNMeA]P-X29), for which the TGI in the assay with RXF 393 renal is 3.94 µM; in the assay with SW-620 colon, 20.6 µM; in the assay with UO-31 renal, 12 µM; in the assay with HOP-62 NSCLC, 21.1 µM; in the assay on A498 renal, 8.69 µM; with HS 578T breast, more than 100 µM. Also, the TGI was 9.3 µM in the assay on NCI-H23 lung, 3.26 µM in the assay on HT29 colon, 15.5 µM in the assay with NCI-H460 lung and 13.5 µM in the assay with HCT-15 colon.

On to `CCOc1ccc(N=NC2C(=O)N(C(=O)CC(=O)Nc3ccccc3)N=C2C)cc1` (configuration not stated), for which the TGI with RXF 393 renal was more than 100 µM; with SW-620 colon it was more than 100 µM; in the assay with UO-31 renal, more than 100 µM; with HOP-62 NSCLC, more than 100 µM; with A498 renal it was more than 100 µM; with HS 578T breast, 87.3 µM. The TGI in the assay with NCI-H23 lung, in the assay with HT29 colon, in the assay with NCI-H460 lung and in the assay on HCT-15 colon was more than 100 µM each time.

Turning to `CC(C)(C)CC(C)(C)NC(=S)NO`, the TGI in the assay on RXF 393 renal, in the assay with SW-620 colon, in the assay on UO-31 renal, in the assay with HOP-62 NSCLC, with A498 renal and in the assay on HS 578T breast was more than 100 µM each time. For the same compound, the TGI with NCI-H23 lung, in the assay on HT29 colon, in the assay with NCI-H460 lung and in the assay with HCT-15 colon was more than 100 µM in each case.

As to `Cc1ccc(-c2cc(O)c3nc4ccccc4n3c2)cc1`, the TGI in the assay on RXF 393 renal, in the assay with SW-620 colon, in the assay on UO-31 renal, with HOP-62 NSCLC, in the assay on A498 renal and in the assay on HS 578T breast was more than 100 µM throughout. In addition, the TGI with NCI-H23 lung, with HT29 colon, in the assay with NCI-H460 lung and in the assay on HCT-15 colon was more than 100 µM each time.

Take `CC(C)=CCOc1cc(NC(=S)c2ccsc2C)ccc1Cl`: the TGI was 80.6 µM with RXF 393 renal; more than 100 µM with SW-620 colon; more than 100 µM in the assay on UO-31 renal; 58.9 µM in the assay on HOP-62 NSCLC; more than 100 µM in the assay on A498 renal; more than 100 µM in the assay on HS 578T breast. The TGI in the assay on NCI-H23 lung, in the assay on HT29 colon, with NCI-H460 lung and with HCT-15 colon was more than 100 µM in each case.

`CCCC1C(=O)Nc2cccc3ncn(c23)C1=O` (configuration not stated): the TGI in the assay with RXF 393 renal, with SW-620 colon, with UO-31 renal, in the assay on HOP-62 NSCLC, in the assay on A498 renal and with HS 578T breast was more than 100 µM throughout. Besides, the TGI in the assay on NCI-H23 lung, with HT29 colon, in the assay on NCI-H460 lung and in the assay with HCT-15 colon was more than 100 µM throughout.

For `CC(C)(O)C1CC[C@]2(C)[C@H]3CC[C@@H]4[C@@]5(C)CCCC(C)(C)[C@@H]5CC[C@@]4(C)[C@]3(C)CC[C@@H]12` (some centres not stated), the TGI in the assay on RXF 393 renal, in the assay on SW-620 colon, in the assay on HOP-62 NSCLC, with A498 renal, with HS 578T breast and in the assay on NCI-H23 lung was more than 100 µM throughout. Besides, the TGI in the assay on HT29 colon, in the assay on NCI-H460 lung and in the assay with HCT-15 colon was more than 100 µM each time.

In the case of `Cc1ccc(NC2=NCCO2)c2c1CCC2`, the TGI in the assay on RXF 393 renal, in the assay with SW-620 colon, with UO-31 renal, with HOP-62 NSCLC, with A498 renal and in the assay on HS 578T breast was more than 100 µM throughout. The TGI in the assay with NCI-H23 lung, with HT29 colon, with NCI-H460 lung and in the assay on HCT-15 colon was more than 100 µM each time.

For the compound `NC(Cc1c[nH]c2cc([N+](=O)[O-])ccc12)C(=O)O` (configuration not stated), the TGI in the assay with RXF 393 renal, in the assay with SW-620 colon, in the assay on UO-31 renal, with HOP-62 NSCLC, in the assay on A498 renal and with HS 578T breast was more than 100 µM in each case. Also, the TGI in the assay with NCI-H23 lung, in the assay with HT29 colon, in the assay on NCI-H460 lung and with HCT-15 colon was more than 100 µM throughout.

Take `COc1ccc(C(Cc2ccccc2)C2NC(=S)NC2=O)cc1` (configuration not stated): the TGI in the assay with RXF 393 renal, in the assay with SW-620 colon, in the assay with UO-31 renal, in the assay with HOP-62 NSCLC, in the assay with A498 renal and in the assay with HS 578T breast was more than 25 µM throughout. Also, the TGI with NCI-H23 lung, with HT29 colon, in the assay with NCI-H460 lung and in the assay with HCT-15 colon was more than 25 µM throughout.

In the case of `CCCCCCCCCC(=O)N[C@@H](c1ccco1)[C@@H](O)C(=O)O[C@H]1C[C@@]2(O)[C@@H](OC(=O)c3ccccc3)[C@@H]3[C@]4(OC(C)=O)CO[C@@H]4C[C@H](O)[C@@]3(C)C(=O)[C@H](OC(C)=O)C(=C1C)C2(C)C`, the TGI is 0.898 µM in the assay with RXF 393 renal; more than 50 µM in the assay with SW-620 colon; 12.7 µM in the assay on UO-31 renal; 1.68 µM in the assay on HOP-62 NSCLC; 10.3 µM in the assay with A498 renal; 0.0857 µM in the assay with HS 578T breast. Further, the TGI worked out at 11.4 µM in the assay with NCI-H23 lung, 7.1 µM in the assay with HT29 colon, 8.9 µM in the assay with NCI-H460 lung and 8.73 µM in the assay with HCT-15 colon.

Take `O=S(=O)(O)c1cccc2cccc(N=Nc3c(O)ccc4ccccc34)c12`: the TGI in the assay with RXF 393 renal, in the assay with SW-620 colon, in the assay with UO-31 renal, in the assay with HOP-62 NSCLC, with A498 renal and in the assay with HS 578T breast was more than 100 µM each time. Also, the TGI in the assay on NCI-H23 lung, with HT29 colon, in the assay on NCI-H460 lung and in the assay on HCT-15 colon was more than 100 µM each time.

With `COC(=O)c1c(CC(Cc2ccc3c(c2)CCCC3)C(=O)OC)ccc2c1CCCC2` (configuration not stated), the TGI in the assay on RXF 393 renal, with SW-620 colon, with UO-31 renal, in the assay with HOP-62 NSCLC, in the assay with A498 renal and in the assay with HS 578T breast was more than 100 µM throughout. The TGI with NCI-H23 lung, in the assay with HT29 colon, in the assay on NCI-H460 lung and with HCT-15 colon was more than 100 µM each time.

Regarding `COC(=O)c1c(C)cccc1C1CN=NC12Cc1ccc(C)c(C)c1C2=O` (configuration not stated), the TGI with RXF 393 renal, in the assay with SW-620 colon, in the assay on UO-31 renal, with HOP-62 NSCLC, with A498 renal and in the assay on HS 578T breast was more than 100 µM throughout. Besides, the TGI in the assay with NCI-H23 lung, in the assay with HT29 colon, with NCI-H460 lung and in the assay on HCT-15 colon was more than 100 µM in each case.

Regarding `CN1N=C(c2ccncc2)OC1c1cccc(C(F)(F)F)c1` (configuration not stated), the TGI in the assay on RXF 393 renal, with SW-620 colon, in the assay with UO-31 renal, in the assay on HOP-62 NSCLC, in the assay with A498 renal and in the assay on HS 578T breast was more than 100 µM each time. In addition, the TGI in the assay on NCI-H23 lung, in the assay on HT29 colon, in the assay with NCI-H460 lung and with HCT-15 colon was more than 100 µM in each case.

With `O=CC(O)C(O)C(O)C1CNC(=S)O1` (configuration not stated), the TGI with RXF 393 renal, in the assay with SW-620 colon, with UO-31 renal, in the assay with HOP-62 NSCLC, with A498 renal and in the assay on HS 578T breast was more than 100 µM each time. The TGI with NCI-H23 lung, with HT29 colon, in the assay with NCI-H460 lung and in the assay on HCT-15 colon was more than 100 µM in each case.

`O=C1C=C2CCC[C@H]3OC(=O)C[C@@]23CC1`: the TGI in the assay on RXF 393 renal, with SW-620 colon, in the assay on HOP-62 NSCLC, in the assay on A498 renal, in the assay with HS 578T breast and with NCI-H23 lung was more than 100 µM in each case. For the same compound, the TGI with HT29 colon, with NCI-H460 lung and in the assay with HCT-15 colon was more than 100 µM in each case.
